Values joined by “and” are separate entries in the source; they are usually repeats but may differ in a detail not shown here. Identical values can stand only once.

The test system of one series is normal human melanocytes. Briefly: Depigmenting activity: melanin produced by normal human melanocytes in vitro. The class given is cell-based. The procedure:
The measurement of the depigmenting activity (reduction in the production of melanin) of compounds of formula (I) was performed by assaying the melanin produced by normal human melanocytes in vitro as follows.
First of all, normal human melanocytes are cultured and dispensed into 384 wells. After 24 hours, the culture medium was replaced with a medium containing compounds of formula (I) to be evaluated. The cells were incubated for 72 hours before measurement of the final optical density, which measures the amount of melanin produced by the melanocytes. A […] is performed using a wide concentration range of the compounds evaluated. Thus, by making the concentrations and the measurements of melanin correspond, it is possible to determine an IC50 in μM: concentration at which 50% decrease in melanin synthesis is achieved.

The test system of a further series is HAS3 marker. Briefly: Gene marker expression (HAS3) in human epidermal keratinocytes by RT-qPCR. It counts as cell-based. As for the experimental part:
Human epidermal keratinocytes were seeded in 48 well-culture plate and cultured for 48 hours at 37° C. and 5% of CO2 in culture medium with renewal of culture medium after the first 24 hours. At the end of incubation, culture medium was replaced by assay medium containing or not (control) raw material and cells were incubated for additional 24 hours. All experimental conditions were performed in n=3. At the end of treatment, cells were washed twice in PBS (w/o CaCl2, w/o MgCl2) and RNA extraction was performed using MagMAX™-96 Total RNA Isolation Kit (Ambion cat n° AM8130) according to manufacturer recommendation. RNA quantification and quality control were performed using Labchip GX (Perkin Elmer). Relative expression of selected markers was measured by two steps RT-qPCR. In a first step, a reverse transcription was performed using the Quantitect® Reverse transcription kit (QIAGEN) and according to manufacturer recommendation. Then, PCR experiments were performed using a LightCycler® 480 Real-Time PCR System measuring SYBR®Green incorporation (Roche).
For orientation: Real-time PCR tracks product formation cycle by cycle.

For orientation: IC50 means the concentration at which inhibition is half-maximal. Take `O=C(O)c1c(O)cc(/C=C/c2ccc(O)cc2)cc1O` [Compound W]: the IC50 with normal human melanocytes (Melanocyte, normal human melanocytes, 72 hours incubation, optical density, read-out: IC50, inhibiting effect on the production of melanin) was 25 µM. Also, the “Mean percentage Depigmentation” value with normal human melanocytes (concentration 0.000003125 (unit not given)) is 15.6%; in the series with normal human melanocytes (concentration 0.00000625 (unit not given)), 22.8%; in the series with normal human melanocytes (concentration 0.0000125 (unit not given)), 32.8%; with normal human melanocytes (concentration 0.000025 (unit not given)), 43.0%; in the series with normal human melanocytes (concentration 0.00005 (unit not given)), 76.7%; in the series with normal human melanocytes (concentration 0.0001 (unit not given)), 99.7%. For the same molecule, the “Mean percentage Depigmentation” value in the series on normal human melanocytes (concentration 0.0002 (unit not given)) is reported as 125.6%; with normal human melanocytes (concentration 1.5625*10^−6 (unit not given)), 9.7%; with normal human melanocytes (concentration 3.90625*10^−7 (unit not given)), −0.9%; in the series on normal human melanocytes (concentration 7.8125*10^−7 (unit not given)) it was 5.5%. The depigmenting effect entry in the series with normal human melanocytes (normal human melanocytes) is given as “showed a depigmenting effect”. Besides, the cytotoxicity result is “without cytotoxicity” in the series with normal human melanocytes (normal human melanocytes, in the concentration range tested) and “without cytotoxicity” with HAS3 marker (human epidermal keratinocytes, at 30 μM). Besides, the “Relative expression (UA) of HAS3” value with HAS3 marker (30 μM, 24 hours, human epidermal keratinocytes, individual replicates (n=3)) was 3.44E−03 UA and 3.32E−03 UA and 3.61E−03 UA. For the same molecule, the “Fold change Mean of HAS3 expression vs control” value with HAS3 marker (30 μM, 24 hours, mean of n=3) was 2.45. In addition, in the series on HAS3 marker (30 μM, 24 hours, vs control, individual replicates (n=3)), the “Fold change (Nb) of HAS3 expression” value is 2.432 Nb and 2.35 Nb and 2.553 Nb.

The values above are taken from patent US11058619B2, “Carboxylated polyphenol derivatives and their cosmetic use” (L'ORÉAL, priority 2016, dated 2021).
